# ChEMBL document CHEMBL5338738, “Discovery of Novel Sesquiterpene Lactone Derivatives as Potent PKM2 Activators for the Treatment of Ulcerative Colitis” (J Med Chem, 2023)
# Calls of active or inactive are those of the source. The rule behind the calls is not given here.
# Key:
# CD4+ve Th [1] = test: Inhibition of Th17 cells differentiation in anti-CD3/CD28 stimulated C57BL/6 mouse mesenteric lymph node CD4+ve Th cells assessed as downregulation of IL21 mRNA expression level at 0.1 to 3 uM incubated for 96 hrs in presence of recombinant human TGF-beta, recombinant mouse IL-6 and recombinant mouse IL-23 by qPCR analysis; assay type: functional, cell-based; settings: dose 0.1-3 µM
# [2] = Toxicity in C57BL/6 mouse assessed as histological change in liver at 6.25 to 25 mg/kg, po for 10 days consecutively by H and E staining based microscopy; assay type: organism-based; settings: in vivo, 240 h, dose 6.25-25 mg/kg, time 10 day
# CD4+ve Th [3] = test: Inhibition of Treg cells differentiation in anti-CD3/CD28 stimulated C57BL/6 mouse mesenteric lymph node CD4+ve Th cells assessed as change in Foxp3 mRNA expression level cells at 0.1 to 3 uM incubated for 96 hrs in presence of recombinant human TGF-beta by qPCR analysis; assay type: functional, cell-based; settings: dose 0.1-3 µM
# Mus musculus [4] = test: Anti-colitis activity against DSS-induced ulcerative colitis C57BL/6 mouse model assessed as increase in colon length at 12.5 to 25 mg/kg, po for 10 days consecutively; assay type: functional, organism-based; settings: dose 12.5-25 mg/kg, time 10.0 day
# [5] = Protein binding in rat plasma assessed as bound fraction; assay type: ADME, cell-free; settings: read-out: PPB (converted)
# CD4+ve Th [6] = test: Inhibition of aerobic glycolysis in anti-CD3/CD28 stimulated C57BL/6 mouse mesenteric lymph node CD4+ve Th cells assessed as reduction in glucose uptake level at 0.3 to 3 uM incubated for 96 hrs in presence of recombinant human TGF-beta, recombinant mouse IL-6 and recombinant mouse IL-23 by NBDG staining based immunofluorescence analysis; assay type: functional, cell-based; settings: dose 0.3-3 µM
# [7] = Inhibition of Th17 cells differentiation in anti-CD3/CD28 stimulated C57BL/6 mouse mesenteric lymph node CD4+ve Th cells assessed as decrease in proportion of IL17A-positive Th17 cells at 3 uM incubated for 96 hrs in presence of recombinant human TGF-beta, recombinant mouse IL-6 and recombinant mouse IL-23 by flow cytometry (Rvb= 16.7%); assay type: functional; settings: C57BL/6, CD4+ve Th
# CD4+ve Th [8] = test: Inhibition of Th17 cells differentiation in anti-CD3/CD28 stimulated C57BL/6 mouse mesenteric lymph node CD4+ve Th cells assessed as decrease in PKM2 expression in nucleus at 0.1 to 3 uM incubated for 96 hrs in presence of recombinant human TGF-beta, recombinant mouse IL-6 and recombinant mouse IL-23 by Western blot analysis; assay type: functional, cell-based; settings: dose 0.1-3 µM
# Mus musculus [9] = test: Anti-colitis activity against DSS-induced ulcerative colitis C57BL/6 mouse model assessed as downregulation of RORC mRNA expression level in colon at 12.5 to 25 mg/kg, po for 10 days consecutively by qPCR assay; assay type: functional, organism-based; settings: dose 12.5-25 mg/kg, time 10.0 day
# [10] = Toxicity in C57BL/6 mouse assessed as body weight change at 6.25 to 25 mg/kg, po for 10 days consecutively; assay type: organism-based; settings: in vivo, 240 h, dose 6.25-25 mg/kg, time 10 day
# [11] = Toxicity in C57BL/6 mouse assessed as histological change in lung at 6.25 to 25 mg/kg, po for 10 days consecutively by H and E staining based microscopy; assay type: organism-based; settings: in vivo, 240 h, dose 6.25-25 mg/kg, time 10 day
# Mus musculus [12] = test: Anti-colitis activity against TNBS-induced ulcerative colitis BALB/c mouse model assessed as decrease in mucosal damage in colon at 12.5 to 25 mg/kg, po for consecutive 7 days by H and E staining based microscopy; assay type: functional, organism-based; settings: dose 12.5-25 mg/kg, time 7.0 day
# Pyruvate kinase PKM = Pyruvate kinase PKM (Homo sapiens, UniProt P14618); test: Binding affinity to PKM2 (unknown origin) by SPR assay
# Pyruvate kinase PKM, sequence (P14618 whole entry): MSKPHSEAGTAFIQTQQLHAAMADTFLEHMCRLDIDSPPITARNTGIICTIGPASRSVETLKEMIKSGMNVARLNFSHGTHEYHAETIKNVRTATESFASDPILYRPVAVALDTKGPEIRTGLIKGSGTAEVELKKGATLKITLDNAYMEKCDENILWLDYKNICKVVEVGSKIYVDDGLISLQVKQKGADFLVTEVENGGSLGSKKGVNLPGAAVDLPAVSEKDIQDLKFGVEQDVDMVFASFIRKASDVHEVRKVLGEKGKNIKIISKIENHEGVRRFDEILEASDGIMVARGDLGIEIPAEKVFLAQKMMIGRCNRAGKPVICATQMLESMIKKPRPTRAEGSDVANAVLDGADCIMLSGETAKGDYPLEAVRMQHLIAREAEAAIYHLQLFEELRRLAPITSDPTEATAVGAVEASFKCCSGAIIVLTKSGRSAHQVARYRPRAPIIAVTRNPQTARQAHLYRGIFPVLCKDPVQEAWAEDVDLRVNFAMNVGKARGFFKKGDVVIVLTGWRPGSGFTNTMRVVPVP
# Mus musculus [13] = test: Anti-colitis activity against DSS-induced ulcerative colitis C57BL/6 mouse model assessed as decrease in IL-1beta mRNA expression level in colon at 12.5 to 25 mg/kg, po for 10 days consecutively by qPCR analysis; assay type: functional, organism-based; settings: dose 12.5-25 mg/kg, time 10.0 day
# CD4+ve Th [14] = test: Inhibition of Th17 cells differentiation in anti-CD3/CD28 stimulated C57BL/6 mouse mesenteric lymph node CD4+ve Th cells assessed as downregulation of RORC mRNA expression level at 0.1 to 3 uM incubated for 96 hrs in presence of recombinant human TGF-beta, recombinant mouse IL-6 and recombinant mouse IL-23 by qPCR analysis; assay type: functional, cell-based; settings: dose 0.1-3 µM
# [15] = Genotoxicity in Salmonella typhimurium by AMES test; assay type: toxicity; settings: salmonella enterica subsp. enterica serovar typhimurium
# [16] = Volume of distribution in Sprague-Dawley rat at 8 mg/kg,iv and measured upto 24 hrs by LC-MS/MS analysis; assay type: ADME, organism-based; settings: in vivo
# Mus musculus [17] = test: Anti-colitis activity against TNBS-induced ulcerative colitis BALB/c mouse model assessed as decrease in inflammatory injury by measuring MPO level at 12.5 to 25 mg/kg, po for consecutive 7 days; assay type: functional, organism-based; settings: dose 12.5-25 mg/kg, time 7.0 day
# [18] = target: Pyruvate kinase PKM (Mus musculus) (UniProt P52480); test: Binding affinity to PKM2 in C57BL/6 mouse mesenteric lymph node CD4+ve Th cells assessed as increase in denaturation temperature at 3 uM incubated for 4 hrs by Solvent-induced protein precipitation analysis; assay type: tissue-based; settings: filed as activator
# Pyruvate kinase PKM (Mus musculus), sequence (P52480 whole entry): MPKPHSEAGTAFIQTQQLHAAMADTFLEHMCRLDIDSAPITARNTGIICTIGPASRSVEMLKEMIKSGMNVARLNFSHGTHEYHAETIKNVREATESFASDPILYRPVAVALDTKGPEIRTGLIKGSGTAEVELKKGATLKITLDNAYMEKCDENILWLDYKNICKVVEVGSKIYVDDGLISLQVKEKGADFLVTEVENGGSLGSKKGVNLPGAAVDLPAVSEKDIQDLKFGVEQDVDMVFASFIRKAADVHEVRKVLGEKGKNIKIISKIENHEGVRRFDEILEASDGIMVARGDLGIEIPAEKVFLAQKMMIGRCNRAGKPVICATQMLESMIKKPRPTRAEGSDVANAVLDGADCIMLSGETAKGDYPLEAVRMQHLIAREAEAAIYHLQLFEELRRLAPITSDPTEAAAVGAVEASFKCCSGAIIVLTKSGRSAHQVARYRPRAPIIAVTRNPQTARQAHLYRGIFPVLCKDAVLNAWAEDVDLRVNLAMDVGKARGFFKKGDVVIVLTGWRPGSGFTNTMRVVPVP
# [19] = Toxicity in C57BL/6 mouse assessed as histological change in heart at 6.25 to 25 mg/kg, po for 10 days consecutively by H and E staining based microscopy; assay type: organism-based; settings: in vivo, 240 h, dose 6.25-25 mg/kg, time 10 day
# T-cell = test: Immunomodulatory activity in C57BL/6 mouse mesenteric lymph node T cells assessed as inhibition of concanavalin A stimulated T-cell proliferation incubated for 68 hrs by CCK-8 assay; assay type: functional, cell-based; settings: C57BL/6, T-cell
# Mus musculus [20] = test: Anti-colitis activity against DSS-induced ulcerative colitis C57BL/6 mouse model assessed as downregulation of IL10 mRNA expression level in colon at 6.25 to 25 mg/kg, po for 10 days consecutively by qPCR assay; assay type: functional, organism-based; settings: dose 6.25-25 mg/kg, time 10.0 day
# CD4+ve Th [21] = test: Inhibition of Th17 cells differentiation in anti-CD3/CD28 stimulated C57BL/6 mouse mesenteric lymph node CD4+ve Th cells assessed as increase in PKM2 tetramer formation at 0.1 to 3 uM incubated for 96 hrs in presence of recombinant human TGF-beta, recombinant mouse IL-6 and recombinant mouse IL-23 by Western blot analysis; assay type: functional, cell-based; settings: dose 0.1-3 µM
# CD4+ve Th [22] = test: Cytotoxicity against C57BL/6 mouse mesenteric lymph node CD4+ve Th cells assessed as reduction in cell proliferation at 0.3 to 3 uM incubated for 96 hrs by CCK-8 assay; assay type: toxicity, cell-based; settings: dose 0.3-3 µM
# Mus musculus [23] = test: Anti-colitis activity against DSS-induced ulcerative colitis C57BL/6 mouse model assessed as downregulation of IL10 mRNA expression level in spleen at 6.25 to 25 mg/kg, po for 10 days consecutively by qPCR assay; assay type: functional, organism-based; settings: dose 6.25-25 mg/kg, time 10.0 day
# [24] = AUCt in Sprague-Dawley rat at 8 mg/kg,iv and measured upto 24 hrs by LC-MS/MS analysis; assay type: ADME, organism-based; design: time < 24 hrs, dose 8 mg/kg, route iv; settings: in vivo
# Mus musculus [25] = test: Anti-colitis activity against DSS-induced ulcerative colitis C57BL/6 mouse model assessed as reduction in inflammatory cell infiltration in colon at 12.5 to 25 mg/kg, po for 10 days consecutively by H and E staining based microscopic analysis; assay type: functional, organism-based; settings: dose 12.5-25 mg/kg, time 10.0 day
# Mus musculus [26] = test: Anti-colitis activity against DSS-induced ulcerative colitis C57BL/6 mouse model assessed as downregulation of RORC mRNA expression level in mesenteric lymph nodes at 12.5 to 25 mg/kg, po for 10 days consecutively by qPCR assay; assay type: functional, organism-based; settings: dose 12.5-25 mg/kg, time 10.0 day
smiles,measurement,setting,value
C=C1C(=O)O[C@H]2[C@H]1CC[C@@]1(C)[C@@H](CC[C@@]3(C)O[C@@H]23)C1(F)F,inhibition,CD4+ve Th [1],Active
same,Activity,[2],Non-Toxic
same,inhibition,CD4+ve Th [3],inactive
same,Activity,Mus musculus [4],Active
same,fraction unbound,[5],0.201
same,inhibition,CD4+ve Th [6],Active
same,IL17A+ cells at 3 µM,[7],4.26%
same,inhibition,CD4+ve Th [8],Active
same,Activity,Mus musculus [9],Active
same,Activity,[10],Non-Toxic
same,Activity,[11],Non-Toxic
same,Activity,Mus musculus [12],Active
same,Kd,Pyruvate kinase PKM,0.0184 µM
same,Activity,Mus musculus [13],Active
same,inhibition,CD4+ve Th [14],Active
same,Activity,[15],Non-Toxic
same,Vd,[16],17.6 L/kg
same,Activity,Mus musculus [17],Active
same,Activity,[18],Active
same,Activity,[19],Non-Toxic
same,IC50,T-cell,0.59 µM
same,Activity,Mus musculus [20],inactive
same,inhibition,CD4+ve Th [21],Active
same,Activity,CD4+ve Th [22],Non-Toxic
same,Activity,Mus musculus [23],inactive
same,AUC(0-t) at 24 h,[24],1230 ng·h/mL
same,Activity,Mus musculus [25],Active
same,Activity,Mus musculus [26],Active
